# Laboratory results reported in patent publication US5098930A, “Heterocyclic derivatives” (Imperial Chemical Industries PLC, priority 1988, dated 1992).
# Legend:
# [1] = target: T1, 5-LO (Homo sapiens, UniProt P09917); assay: test b) in vitro heparinised human blood, A23187 challenge, LTB4 radioimmunoassay; format: cell-based
# T1 construct: incubating a test compound with heparinised human blood; endogenous in cells; host or cells: blood cells in heparinised human blood
# T1 sequence (P09917 1-674): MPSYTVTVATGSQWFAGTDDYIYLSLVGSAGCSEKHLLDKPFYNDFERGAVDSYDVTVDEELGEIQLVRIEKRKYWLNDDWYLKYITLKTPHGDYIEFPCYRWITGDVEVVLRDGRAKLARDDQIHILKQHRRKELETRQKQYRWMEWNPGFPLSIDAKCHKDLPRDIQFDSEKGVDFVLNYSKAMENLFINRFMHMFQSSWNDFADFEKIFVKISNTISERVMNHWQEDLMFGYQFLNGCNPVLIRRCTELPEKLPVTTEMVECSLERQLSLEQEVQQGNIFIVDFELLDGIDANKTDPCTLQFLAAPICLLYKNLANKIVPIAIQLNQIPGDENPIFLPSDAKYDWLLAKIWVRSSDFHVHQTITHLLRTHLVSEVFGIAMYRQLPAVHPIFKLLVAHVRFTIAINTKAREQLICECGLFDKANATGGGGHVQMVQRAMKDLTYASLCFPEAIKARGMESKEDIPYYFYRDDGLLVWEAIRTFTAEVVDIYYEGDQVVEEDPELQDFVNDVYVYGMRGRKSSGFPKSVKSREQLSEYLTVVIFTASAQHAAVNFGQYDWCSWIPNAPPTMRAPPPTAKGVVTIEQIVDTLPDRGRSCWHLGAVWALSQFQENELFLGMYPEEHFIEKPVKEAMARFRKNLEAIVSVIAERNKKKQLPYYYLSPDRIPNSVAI
# Protocol: b) An in vitro assay system involving incubating a test compound with heparinised human blood, prior to challenge with the calcium ionophore A23187 and then indirectly measuring the inhibitory effects on 5-LO by assaying the amount of LTB4 using the specific radioimmunoassay described by Carey and Forder (F. Carey and R. A. Forder, Brit. […] This test provides an indication of the effects of a test compound against 5-LO and also cyclooxygenase in the presence of blood cells and proteins. It permits the selectivity of the inhibitory effect on 5-LO or cyclooxygenase to be assessed.
# [2] = target: T2, cyclooxygenase (Homo sapiens, UniProt P23219); assay: test b) in vitro heparinised human blood, A23187 challenge, TxB2 radioimmunoassay; format: cell-based
# T2 construct: incubating a test compound with heparinised human blood; endogenous in cells; host or cells: blood cells (platelets by own knowledge) in heparinised human blood
# Protocol: As stated previously, the heterocyclic derivatives of the formula I are inhibitors of the enzyme 5-LO.
# b) An in vitro assay system involving incubating a test compound with heparinised human blood, prior to challenge with the calcium ionophore A23187 and then indirectly measuring the inhibitory effects on 5-LO by assaying the amount of LTB4 using the specific radioimmunoassay described by Carey and Forder (F. Carey and R. A. Forder, Brit. J. Pharmacol. 1985, 84, 34P) which involves the use of a protein-LTB4 conjugate produced using the procedure of Young et alia (Prostaglandins, 1983, 26(4), 605-613). The effects of a test compound on the enzyme cyclooxygenase (which is involved in the alternative metabolic pathway for arachidonic acid and gives rise to prostaglandins, thromboxanes and related metabolites) may be measured at the same time using the specific radioimmunoassay for thromboxane B2 (TxB2) described by Carey and Forder (see above). This test provides an indication of the effects of a test compound against 5-LO and also cyclooxygenase in the presence of blood cells and proteins. It permits the selectivity of the inhibitory effect on 5-LO or cyclooxygenase to be assessed.
# [3] = target: T3, 5-LO (Rattus norvegicus, UniProt P12527); assay: test c) ex vivo assay, oral administration, blood collection, A23187 challenge, radioimmunoassay of LTB4; format: in vivo
# T3 construct: blood collection, heparinisation, challenge with A23187 and radioimmunoassay of LTB4 and TxB2; endogenous in cells
# T3 sequence (P12527 1-673): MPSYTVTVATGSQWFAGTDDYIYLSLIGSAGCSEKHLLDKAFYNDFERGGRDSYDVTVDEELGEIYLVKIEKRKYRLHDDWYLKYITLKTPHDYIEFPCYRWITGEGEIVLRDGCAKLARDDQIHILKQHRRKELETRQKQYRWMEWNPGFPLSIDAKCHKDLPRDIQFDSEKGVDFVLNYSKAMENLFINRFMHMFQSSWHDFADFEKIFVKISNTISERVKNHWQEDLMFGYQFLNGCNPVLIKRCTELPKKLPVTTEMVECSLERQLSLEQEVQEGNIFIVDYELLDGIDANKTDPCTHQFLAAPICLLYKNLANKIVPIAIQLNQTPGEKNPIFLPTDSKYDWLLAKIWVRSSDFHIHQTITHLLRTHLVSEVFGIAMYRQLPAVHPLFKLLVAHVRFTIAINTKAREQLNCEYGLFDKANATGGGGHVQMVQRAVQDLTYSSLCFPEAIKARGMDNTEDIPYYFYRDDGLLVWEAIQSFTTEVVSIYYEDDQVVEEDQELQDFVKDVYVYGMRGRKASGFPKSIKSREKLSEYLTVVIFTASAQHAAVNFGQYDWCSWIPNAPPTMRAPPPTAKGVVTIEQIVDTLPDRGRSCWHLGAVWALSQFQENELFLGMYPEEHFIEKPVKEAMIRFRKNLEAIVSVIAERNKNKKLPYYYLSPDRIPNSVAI
# Protocol: c) An ex vivo assay system, which is a variation of test b) above, involving administration of a test compound (usually orally as the suspension produced when a solution of the test compound in dimethylsulphoxide is added to carboxymethylcellulose), blood collection, heparinisation, challenge with A23187 and radioimmunoassay of LTB4 and TxB2. This test provides an indication of the bioavailability of a test compound as an inhibitor of 5-LO or cyclooxygenase.
# T2 sequence (P23219 24-599): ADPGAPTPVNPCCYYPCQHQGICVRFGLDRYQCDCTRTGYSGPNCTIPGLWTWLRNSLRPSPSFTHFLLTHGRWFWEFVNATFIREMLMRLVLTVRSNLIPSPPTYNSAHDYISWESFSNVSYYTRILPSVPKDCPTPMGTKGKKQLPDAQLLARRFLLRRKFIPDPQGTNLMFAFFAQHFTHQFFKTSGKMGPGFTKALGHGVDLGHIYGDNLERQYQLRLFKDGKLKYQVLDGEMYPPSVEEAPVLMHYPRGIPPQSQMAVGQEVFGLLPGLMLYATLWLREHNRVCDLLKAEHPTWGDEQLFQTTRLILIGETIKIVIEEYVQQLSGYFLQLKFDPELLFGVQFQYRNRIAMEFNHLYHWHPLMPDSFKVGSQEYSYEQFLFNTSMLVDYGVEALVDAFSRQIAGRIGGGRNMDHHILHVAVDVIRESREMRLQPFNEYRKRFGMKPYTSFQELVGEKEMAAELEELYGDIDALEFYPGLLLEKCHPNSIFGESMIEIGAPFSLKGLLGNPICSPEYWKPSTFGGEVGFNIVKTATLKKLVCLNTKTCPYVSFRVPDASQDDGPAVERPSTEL
smiles,measurement,setting,value
COC1(c2cccc(OCc3ccc4ccccc4c3)c2)CCOCC1 [4-methoxy-4-[3-(naphth-2-ylmethoxy)phenyl]tetrahydropyran],IC50,[1],100 nM
same,IC50,[2],> 40 µM
same,ED50,[3],5 mg/kg
